# How the values were obtained:
# [1] = cited from earlier work
# ERK = conditions: EGF stimulation
# Description: (§1) [FIG. 5] […] B, Non-tagged CDCA5 expressing vector was transfected to HeLa cells. After starving the cells in FBS free for 20 hours, EGF stimulations were performed at 5, 10, 20, 30 minutes. 10 uM U0126 treatment was performed for 1 hour.
# [FIG. 6A] […] A, ERK1 or ERK2 expressing vector was co-transfected with non-tagged CDCA5 expressing vector to HeLa cells. After starvation of HeLa cells in FBS free for 20 hours, the cells were stimulated with 50 ng/ml EGF for 5, 10, 20, 30 minutes, respectively. 10 uM U0126 treatment was performed for 1 hour before EGF stimulation.
# (§2) Cultured cervical squamous cell carcinoma HeLa cells were cultured in FCS free medium for 20 hours. Then, the cells were stimulated by […] EGF for 20 min with or without 10 micro-M MEK inhibitor U0126 (Promega).
# CDCA5 = tested on: CDCA5
# Description: as §1, §2
# [2] = tested on: A549 lung cancer cell line; assay: Growth assay (MTT) after transfection of CDCA5 mutant vectors, A549; format: cell-based, human; conditions: MTT at 6th day after transfection; compared with mock and wild type vectors
# Description: (§3) [FIG. 7A] The function of ERK-dependent phosphorylation sites in cancer cells. […] Growth assay was performed using A549 and LC319 lung cancer cell lines transfected with mock, wild type and CDCA5 alanine substitute vectors. MTT assay was performed at 6th day after transfection.
# (§4) [FIG. 7B] The function of ERK-dependent phosphorylation sites in cancer cells. B, Growth assay was performed using LC319 and A549 lung cancer cell line which was transfected with mock, wild type and CDCA5 phospho-mimicking mutant vectors. MTT assay was performed at 6th day after transfection.
# (§5) Cell growth may be measured by methods known in the art, e.g., using the MTT cell proliferation assay; briefly, cell-counting kit-8 solution (DOJINDO) is added to each dish at a concentration of 1/10 volume, and the plates are incubated at 37 degree Centigrade (C) for additional 2 hours. Absorbance is then measured at 450 nm as a reference, with a Microplate Reader 550 (BIO-RAD, Hercules, Calif.).
# [3] = tested on: LC319 lung cancer cell line; assay: Growth assay (MTT) after transfection of CDCA5 mutant vectors, LC319; format: cell-based, human; conditions: MTT at 6th day after transfection; compared with mock and wild type vectors
# Description: as §3, §4, §5
compound,measurement,setting,value
C#Cc1cccc(Nc2ncnc3cc(OCCOC)c(OCCOC)cc23)c1 [erlotinib],median survival,"[1]; NSCLC, placebo 4.7 months (NPL 10)",6.7 months
N#CC(=C(/N)Sc1ccccc1N)/C(C#N)=C(\N)Sc1ccccc1N [U0126],activation of exogenous ERK1 or 2 as well as endogenous ERK,"ERK; HeLa cells transfected with ERK1 or ERK2 and CDCA5 vectors, 10 uM U0126 for 1 hour before EGF",but not in U0126 MEK inhibitor treatment
same,levels of ERK phosphorylation,"ERK; serum-starved HeLa cells, 10 micro-M U0126",reduced the levels of ERK phosphorylation
same,upper shift of endogenous CDCA5 band,"CDCA5; serum-starved HeLa cells, EGF stimulation, 10 micro-M U0126",completely inhibited the upper shift of CDCA5 band
same,signal of spot no. 2 of myc-tagged CDCA5 increased by EGF stimulation,"CDCA5; transfected HeLa cells, 2D-Western-blotting with anti-myc antibody, U0126 treatment",also reduced
same,EGF-induced shifted spots (no. 3 and 4) with more acidic pI of myc-tagged CDCA5,"CDCA5; transfected HeLa cells, 2D-Western-blotting with anti-myc antibody, pre-incubation with U0126",significantly reduced
"Ser209 alanine substitute: CDCA5 mutant, alanine at position 209 (SEQ ID NO: 7), expressed from transfected vector; dominant negative",growth of A549 cells (MTT assay),[2],inhibited the growth
same,growth of LC319 cells (MTT assay),[3],inhibited the growth
COc1cc2ncnc(Nc3ccc(F)c(Cl)c3)c2cc1OCCCN1CCOCC1 [gefitinib],response rate and symptom control,[1]; NSCLC (NPL 11),superior response rate and symptom control
